Each structure is given as a SMILES string.

Usually melting point stands for the temperature of the solid-liquid transition. `C[C@]1(CN2CCN(N=Cc3cc4cc(Cl)ccc4o3)CC2)Cn2cc([N+](=O)[O-])nc2O1`: the melting point fell in the range of 213.8 to 215.7 °C.
For `CCOC(=O)N1CCN(C(=O)c2ccc(OC[C@@]3(C)Cn4cc([N+](=O)[O-])nc4O3)cc2)CC1` the value was 132 to 135 °C.
For `CC1(CN2CCN(C(=O)Cc3ccc(C(F)(F)F)cc3)CC2)Cn2cc([N+](=O)[O-])nc2O1` (stereo not drawn) the value was 168 to 171.4 °C; for `O=C(Nc1ccc(N2CCOCC2)c(F)c1)N1CCC2(CC1)Cn1cc([N+](=O)[O-])nc1O2`, 240 to 245 °C (dec.); for `CC1(CN2CCN(S(=O)(=O)Cc3ccc(Cl)cc3)CC2)Cn2cc([N+](=O)[O-])nc2O1` (stereo not drawn), 215 to 217 °C.
As for `CC1(CNC(=O)OCc2ccc(OC(F)(F)F)cc2)Cn2cc([N+](=O)[O-])nc2O1` (stereo not drawn), the figure is 182.3 to 184.4 °C; as for `CCn1nnnc1CCC1(C)Cn2cc([N+](=O)[O-])nc2O1` (stereo not drawn), 135 to 137 °C; as for `CNC(=O)OC[C@@]1(C)Cn2cc([N+](=O)[O-])nc2O1`, 175 to 178 °C.
With `C[C@]1(CN2CCN(N=C3CCCCC3)CC2)Cn2cc([N+](=O)[O-])nc2O1`, the melting point lay in the range of 178.6 to 179.3 °C.
As for `CC1(COc2ccc(C3CCN(Cc4ccc(OC(F)(F)F)cc4)CC3)cc2)Cn2cc([N+](=O)[O-])nc2O1` (stereo not drawn), the figure is 160.6 to 161.1 °C.
Regarding `CC1(CCc2nnnn2-c2ccccc2)Cn2cc([N+](=O)[O-])nc2O1` (stereo not drawn), the melting point is 158 to 159 °C.
As for `CC1(CCCN2CCN(Cc3ccc(-c4ccccc4)cc3)CC2)Cn2cc([N+](=O)[O-])nc2O1` (stereo not drawn), the figure is 176 to 178 °C; as for `CC1(CN2CCCN(Cc3ccc(-c4ccccc4)cc3)CC2)Cn2cc([N+](=O)[O-])nc2O1` (stereo not drawn), 138 to 142.2 °C.
As for `O=C(NCC1Cn2cc([N+](=O)[O-])nc2O1)OCc1ccc(Cl)cc1` (stereo not drawn), the figure is 182.6 to 182.9 °C.
For `CC1(CN2CCN(C(=O)COc3ccc(Cl)c(Cl)c3)CC2)Cn2cc([N+](=O)[O-])nc2O1` (stereo not drawn) the value was 209 to 211 °C; for `C[C@]1(CN2CCC3(CC2)OCCO3)Cn2cc([N+](=O)[O-])nc2O1`, 166.5 to 168.2 °C; for `C[C@]1(CN2CCC(N3CCN(Cc4ccc(OC(F)(F)F)cc4)CC3)CC2)Cn2cc([N+](=O)[O-])nc2O1`, 142 to 143 °C.
`CC1(CN2CCN(C(=O)OCc3ccc(C(=O)c4ccccc4)cc3)CC2)Cn2cc([N+](=O)[O-])nc2O1` (stereo not drawn) returned a melting point of 105 to 107 °C.
In turn, `C[C@]1(CN2CCN(C(=O)CCCc3ccc(C(F)(F)F)cc3)CC2)Cn2cc([N+](=O)[O-])nc2O1` returned a melting point of 145 to 146 °C.
`C[C@]1(CN2CCN(C(=O)NCc3ccc(C(F)(F)F)cc3)CC2)Cn2cc([N+](=O)[O-])nc2O1` gave a melting point of 101 to 103.6 °C.
As for `O=[N+]([O-])c1cn2c(n1)O[C@H](CN1CCN(Cc3ccc(-c4ccccc4)cc3)CC1)C2`, the figure is 224 to 225 °C; as for `C[C@]1(COC(=O)N2CCN(c3ccc(OC(F)(F)F)cc3)CC2)Cn2cc([N+](=O)[O-])nc2O1`, 168 to 169 °C; as for `C[C@]1(CN2CCC([S+]([O-])c3ccc(OC(F)(F)F)cc3)CC2)Cn2cc([N+](=O)[O-])nc2O1` (stereo partly drawn), 107 to 109 °C.
As for `CCOC(=O)c1ccccc1NCC1(C)Cn2cc([N+](=O)[O-])nc2O1` (stereo not drawn), the figure is 162.5 to 163.2 °C; as for `CC(=O)N1CCC2(CC1)Cn1cc([N+](=O)[O-])nc1O2`, 232 to 234 °C.
`CC1(CN2CCN(C(=O)OCc3ccccc3)CC2)Cn2cc([N+](=O)[O-])nc2O1` (stereo not drawn) returned a melting point of 130.5 to 132.1 °C.
For `C[C@]1(CN2CCN(C(=O)N3CC=C(c4ccc(Cl)cc4)CC3)CC2)Cn2cc([N+](=O)[O-])nc2O1` the value was 161 to 162 °C; for `CC1(CN2CCC(=O)CC2)Cn2cc([N+](=O)[O-])nc2O1` (stereo not drawn), 124 to 126 °C.
As for `O=[N+]([O-])c1cn2c(n1)O[C@@H](CN1CCN(c3ccc(Cl)cc3)CC1)C2`, the melting point was 183 to 183.5 °C.
As for `CC(C)(C)OC(=O)N1CCC(c2ccc(OCC3(C)Cn4cc([N+](=O)[O-])nc4O3)cc2)CC1` (stereo not drawn), the figure is 207.8 to 209.1 °C.
In the case of `CN1C(=O)C(C)(C)c2cc(COC(=O)N3CCN(C[C@@]4(C)Cn5cc([N+](=O)[O-])nc5O4)CC3)ccc21`, the melting point is 80 to 100 °C (dec.).
In the case of `CC1(CCN2CCN(Cc3ccc(-c4ccccc4)cc3)CC2)Cn2cc([N+](=O)[O-])nc2O1` (stereo not drawn), the melting point was in the range of 181 to 182 °C.
Molecule `CN(CC1Cn2cc([N+](=O)[O-])nc2O1)C(=O)OCc1ccc(F)cc1` (stereo not drawn) returned a melting point of 124.5 to 128.1 °C.
`O=C(OCc1ccc(C(F)(F)F)cc1)N1CCN(C(=O)N2CCC3(CC2)Cn2cc([N+](=O)[O-])nc2O3)CC1` yielded a melting point of 221 to 223 °C.
As for `C[C@]1(CN2CCC(c3ccccc3)CC2)Cn2cc([N+](=O)[O-])nc2O1`, the figure is 158.8 to 163.9 °C; as for `CC1(CN2CCN(C(=O)COc3ccccc3)CC2)Cn2cc([N+](=O)[O-])nc2O1` (stereo not drawn), 158 to 160.6 °C; as for `CN(Cc1ccc(N(C)C)cc1)C[C@@]1(C)Cn2cc([N+](=O)[O-])nc2O1`, 168 to 169 °C.
As for `CN(c1ccc(OC(F)(F)F)cc1)C1CCN(C[C@@]2(C)Cn3cc([N+](=O)[O-])nc3O2)CC1`, the melting point lay within 133.2 to 134.4 °C.
As for `CN(CC1(C)Cn2cc([N+](=O)[O-])nc2O1)C(=O)OCc1ccccc1` (stereo not drawn), the figure is 150.3 to 151.6 °C; as for `C[C@]1(COC(=O)N2CCC(Nc3ccc(C(F)(F)F)cc3)CC2)Cn2cc([N+](=O)[O-])nc2O1`, 137 to 140 °C; as for `C[S+]([O-])c1ccc(COC(=O)N2CCN(CC3(C)Cn4cc([N+](=O)[O-])nc4O3)CC2)cc1` (stereo not drawn), 117 to 121 °C.
As for `C[C@]1(COc2ccc(C(=O)N3CCN(C(=O)OCc4ccc(OC(F)(F)F)cc4)CC3)cc2)Cn2cc([N+](=O)[O-])nc2O1`, the figure is 168.5 to 172 °C.
For `C[C@]1(COC(=O)N2CCN(N=Cc3ccc(C(F)(F)F)cc3)CC2)Cn2cc([N+](=O)[O-])nc2O1` the value was 176 to 178 °C; for `CN(CCOc1ccc(Cl)cc1)C[C@@]1(C)Cn2cc([N+](=O)[O-])nc2O1`, 130.5 to 132 °C.
Molecule `CCN(CC)C(=O)OC[C@@]1(C)Cn2cc([N+](=O)[O-])nc2O1` displayed a melting point of 196 to 197 °C.
For `CC1(CCN2CCN(c3nc4ccccc4o3)CC2)Cn2cc([N+](=O)[O-])nc2O1` (stereo not drawn) the value was 187.6 to 189.6 °C; for `CC1(Cn2nc(Cc3ccc(Cl)cc3)oc2=O)Cn2cc([N+](=O)[O-])nc2O1` (stereo not drawn), 151 to 153 °C; for `C[C@]1(CN2CCC(OCC=Cc3ccc(Cl)cc3)CC2)Cn2cc([N+](=O)[O-])nc2O1`, 140.6 to 142.8 °C.
For `C[C@]1(CN(CCOc2ccc(OC(F)(F)F)cc2)Cc2ccccc2)Cn2cc([N+](=O)[O-])nc2O1` the value was 96.5 to 97 °C; for `CC1(CN2CCN(N=Cc3ccc(OC(F)(F)F)cc3)CC2)Cn2cc([N+](=O)[O-])nc2O1` (stereo not drawn), 189.2 to 190.9 °C; for `CN(C(=O)OCc1ccc(Cl)cc1)C1CCN(CC2(C)Cn3cc([N+](=O)[O-])nc3O2)CC1` (stereo not drawn), 147.2 to 149.2 °C.

The record behind these values is patent publication US7262212B2, “2,3-dihydro-6-nitroimidazo[2,1-b]oxazoles” (Otsuka Pharmaceutical Co., Ltd., priority 2002, dated 2007).
